Type in all cases: physicochemical
The nature of data set [1]: Drying or heating in a DSC chamber followed by XRD (form conversion). How it is done:
The Form 1 solid was dried at 75° C. under vacuum overnight, and XRD, DSC, and TGA scans were performed. […] However, the DSC scans indicated the absence of endotherm. The loss of the early peak on the DSC scan had no effect on the XRD trace, showing that the wide endotherm between 50-100° C. on DSC scan was due to the free solvent.
The Form 1 solid was heated in a DSC chamber to 305° C. (past the endotherm/exotherm around 280° C.), and then scanned by XRD. […] It can be concluded that the endotherm/exotherm around 280° C. might be due to melting/crystallization events.
The Form 2 solid was heated in a DSC machine to 90° C. (past the wide endotherm between 50-100° C.); to 270° C. (past the endotherm/exotherm around 240° C.); and finally to 330° C. (past the […]). The residual solid was analyzed by XRD. […] The wide endotherm between 50-100° C. might be free solvent or hydrate. […] Thus, the exotherm around 290° C. was a re-crystallization event. According to an XRD and DSC overlay, the behavior of Form 2* was similar to Form 2.
This has been confirmed for Forms 1 and 2.
Form 13 solid was heated in a DSC chamber to 170° C. (past the endotherm between 50-100° C.), and then scanned by XRD. […] It can be concluded that the endotherm between 50-100° C. is due to bonded water.
Form 13 solid was heated in a DSC chamber to 330° C. (past the endotherm/exotherm around 300° C.), and then scanned by XRD. […] It can be concluded that the endotherm/exotherm is due to melting/crystallization events.

A short description of data set [2]: Competitive slurry experiments between polymorph forms (15 forms mixed, 3-5 days, XRD). The protocol:
In order to find out the thermodynamic stability between the different forms, several competitive slurry experiments were carried out. Form 1, Form 2, Form 2*, Form 3, Form 4, Form 4*, Form 4**, Form 5, Form 7, Form 8, Form 9, Form 10, Form 11, Form 11*, and Form 13 (10 mg for each) was mixed and slurried in 2 mL of solvent at both RT and 50° C. The solids were slurried for 3-5 days and then analyzed by XRD.

Data set [3] is described as follows: Dynamic vapor sorption (DVS) scan. An excerpt: The purity of the Form 13 sample was 98.8%; the KF of an undried Form 13 sample was 35.7%.
Data set [4] is described as follows: Exposure to relative humidity / air followed by XRD. As to conditions: for XRD after drying at 50° C. under vacuum: after air exposure overnight, then dried at 50° C. under vacuum; for XRD after exposure to air overnight: exposed to air overnight. An excerpt: FIGS. 15A-15D are scans of Form 1 in the presence of increasing relative humidity (RH), an example of a non-stoichiometric or stoichiometric hydrate of polymorph Form 1 of the compound of Formula (I). FIG. 15A is an x-ray powder diffraction scan of Form 1 exposed to 10% RH as the anhydrous Form 1. FIG. 15B is an x-ray powder diffraction scan of Form 1 exposed to 20% RH as a partial hydrate of Form 1. FIG. 15C is an x-ray powder diffraction scan of Form 1 exposed to 30% RH as a hydrate of Form 1 (≈10-12% water uptake). FIG. 15D is an x-ray powder diffraction scan of Form 1 exposed to 90% RH as a full hydrate of Form 1 (≈17-20% water uptake). […] The hydrate lost its water below 30% RH. […] The crystal lattice of Form 1 expanded when water was sorbed, giving rise to XRD peaks at ˜5, ˜7 and ˜11 degrees while maintaining the main XRD pattern. The hydrates of Form 1 of a compound of Formula (I) (Form 11) were fully reversible, and lost water when exposed to % RH of less than 20%, turning Form 11 to hydrated forms of Form 1 and to the anhydrous Form 1. Solvates 1 and 2 solids were exposed to air overnight, and then analyzed by XRD. After the analysis, the solids were dried at 50° C. under vacuum, and then analyzed by XRD again.

The nature of data set [5]: Reslurry experiments (polymorph screen) in 39 pure and binary solvents at RT and 50° C. for 5 days, XRD of wet and dry samples. The protocol:
Reslurry experiments in various solvents were performed. Approximately 30-80 mg of the starting solid (a non-stoichiometric or stoichiometric hydrate of Form 1 having between 1% and about 20% by weight water) was slurried in 39 different solvents (pure and binary solvents; the ratio of organic solvent/water (V/V) was 95%/5%) at RT and 50° C. for 5 days. Three solvates, one hydrate, and eleven non-solvated forms were identified. […] XRD of both wet and dry samples were scanned (FIG. 12A (dry sample)).
The slurry experiments identified 3 solvated forms from wet samples (Solvates 1, 2, and 3); 2 non-stoichiometric hydrates of Form 1 (Forms 12 and 13); and 11 non-solvated forms (Forms 1-11). In some instances, similar XRD scans with minor differences were obtained. These were considered to be part of the same class (e.g., the same form). For example, XRD scans of Form 2 and Form 2* were similar and were considered to belong to the same class. The solvated forms were obtained from wet sample analysis; after drying, the sample indicated a different XRD.
Solvate 1 was obtained from acetone at RT, and after drying, a low crystallinity solid was generated. Solvate 2 was obtained from acetone (at RT) and acetone/water (at RT), and after drying, Form 4** was generated. Solvate 3 was obtained from EtOH/water at RT, and after drying, Form 2 was generated.

Where [6] appears, read: reslurry in Acetonitrile/water (5% water), RT.
Where [7] appears, read: reslurry in EA/water (5% water), RT.
[8] abbreviates: reslurry in Heptane/water (5% water), RT.
The mark [9] stands for this setting: reslurry in IPAc/water (5% water), RT.
[10] abbreviates: reslurry in MA/water (5% water), 50° C.
Where [11] appears, read: reslurry in MIBK/water (5% water), RT.
[12] abbreviates: reslurry in MeOH/water (5% water), RT.
The mark [13] stands for this setting: reslurry in MtBE/water (5% water), RT.
Setting [14] is: reslurry in n-Butyl acetate/water (5% water), RT.
Where [15] appears, read: reslurry in Acetone/water (5% water), RT.
Where [16] appears, read: reslurry in EtOH/water (5% water), RT.

Marks after values point to notes of the source that are not given here.

For the compound `CC(C)CC(=O)Nc1cncc(-c2ccc3[nH]nc(-c4nc5c(-c6cccc(F)c6)cncc5[nH]4)c3c2)c1` [Form 2, N-(5-(3-(7-(3-fluorophenyl)-3H-imidazo[4,5-c]pyridin-2-yl)-1H-indazol-5-yl)pyridin-3-yl)-3-methylbutanamide], the entries for the “form after heating (XRD)” value in data set [1] (heated in a DSC machine to 90° C.), in data set [1] (heated to 270° C.) and in data set [1] (heated to 330° C.) were “did not change”, “converted to low crystalline solids” and “converted to Form 9”, respectively. Further, the “form when heated to just before melting” value in data set [1] (heated to just before melting at 364° C.) is on record as “convert to Form 9”. In data set [2] (MeOH, EtOH, and acetone system at both RT and 50° C.), the “thermodynamic stability between forms (competitive slurry)” value is reported as “most stable form”.
For `CC(C)CC(=O)Nc1cncc(-c2ccc3[nH]nc(-c4nc5c(-c6cccc(F)c6)cncc5[nH]4)c3c2)c1` [Form 4, N-(5-(3-(7-(3-fluorophenyl)-3H-imidazo[4,5-c]pyridin-2-yl)-1H-indazol-5-yl)pyridin-3-yl)-3-methylbutanamide], the “thermodynamic stability between forms (competitive slurry)” value in data set [2] (EA at RT and 50° C.) is reported as “most stable”.
Turning to `CC(C)CC(=O)Nc1cncc(-c2ccc3[nH]nc(-c4nc5c(-c6cccc(F)c6)cncc5[nH]4)c3c2)c1` [Form 9, N-(5-(3-(7-(3-fluorophenyl)-3H-imidazo[4,5-c]pyridin-2-yl)-1H-indazol-5-yl)pyridin-3-yl)-3-methylbutanamide], the “form before and after the DVS scan” value in data set [3] (DVS scan) is “did not change its form”. The “water absorption (DVS scan)” value in data set [3] (at 90% RH) is 0.8%.
For the compound `CC(C)CC(=O)Nc1cncc(-c2ccc3[nH]nc(-c4nc5c(-c6cccc(F)c6)cncc5[nH]4)c3c2)c1` [Form 11, N-(5-(3-(7-(3-fluorophenyl)-3H-imidazo[4,5-c]pyridin-2-yl)-1H-indazol-5-yl)pyridin-3-yl)-3-methylbutanamide], the “RH below which the hydrate lost its water” value in data set [4] (relative humidity) is listed as “less than 20%”.
As for `CC(C)CC(=O)Nc1cncc(-c2ccc3[nH]nc(-c4nc5c(-c6cccc(F)c6)cncc5[nH]4)c3c2)c1` [Form 12, N-(5-(3-(7-(3-fluorophenyl)-3H-imidazo[4,5-c]pyridin-2-yl)-1H-indazol-5-yl)pyridin-3-yl)-3-methylbutanamide], the “Dry (form by XRD)” value in data set [5] (setting [6]) was “Form 1”; in data set [5] (setting [7]), “Form 1”; in data set [5] (setting [8]), “Form 12”; in data set [5] (setting [9]), “Form 1”; in data set [5] (setting [10]) it was “Form 4”; in data set [5] (setting [11]), “Form 1”. In addition, the “Dry (form by XRD)” value in data set [5] (setting [12]) was “Form 1”; in data set [5] (setting [13]), “Form 1”; in data set [5] (setting [14]), “Form 12”. Further, the “Wet (form by XRD)” value in data set [5] (setting [6]) is on record as “Form 12”; in data set [5] (setting [7]), “Form 12”; in data set [5] (setting [8]) it was “Form 13”; in data set [5] (setting [9]) it was “Form 12”; in data set [5] (setting [10]) it was “Form 12”; in data set [5] (setting [11]) it was “Form 12”. The “Wet (form by XRD)” value in data set [5] (setting [12]) is “Form 12”; in data set [5] (setting [13]), “Form 12”; in data set [5] (setting [14]), “Form 13”.
Turning to `CC(C)CC(=O)Nc1cncc(-c2ccc3[nH]nc(-c4nc5c(-c6cccc(F)c6)cncc5[nH]4)c3c2)c1` [Solvate 1, N-(5-(3-(7-(3-fluorophenyl)-3H-imidazo[4,5-c]pyridin-2-yl)-1H-indazol-5-yl)pyridin-3-yl)-3-methylbutanamide], in data set [5] (reslurry in Acetone, RT), the “Dry (form by XRD)” value is given as “Low” and the “Wet (form by XRD)” value is “Solvate 1”. In data set [4], the “XRD after drying at 50° C. under vacuum” value is listed as “still low crystallinity solid” and the “XRD after exposure to air overnight” value is given as “converted to low crystallinity”.
Consider `CC(C)CC(=O)Nc1cncc(-c2ccc3[nH]nc(-c4nc5c(-c6cccc(F)c6)cncc5[nH]4)c3c2)c1` [Solvate 2, N-(5-(3-(7-(3-fluorophenyl)-3H-imidazo[4,5-c]pyridin-2-yl)-1H-indazol-5-yl)pyridin-3-yl)-3-methylbutanamide], for which, in data set [5] (reslurry in Acetone, 50° C.), the “Dry (form by XRD)” value is on record as “Form 4**” and the “Wet (form by XRD)” value is given as “Solvate 2”. For the same compound, in data set [5] (setting [15]), the “Dry (form by XRD)” value is on record as “Form 4**” and the “Wet (form by XRD)” value was “Solvate 2”. Further, in data set [4], the “XRD after drying at 50° C. under vacuum” value was “remained the same as the solid exposed to air overnight” and the “XRD after exposure to air overnight” value was “changed a little”.
On to `CC(C)CC(=O)Nc1cncc(-c2ccc3[nH]nc(-c4nc5c(-c6cccc(F)c6)cncc5[nH]4)c3c2)c1` [Solvate 3, N-(5-(3-(7-(3-fluorophenyl)-3H-imidazo[4,5-c]pyridin-2-yl)-1H-indazol-5-yl)pyridin-3-yl)-3-methylbutanamide], for which, in data set [5] (setting [16]), the “Dry (form by XRD)” value is listed as “Form 2” and the “Wet (form by XRD)” value is “Solvate 3”.

Values taken from patent US11819499B2, “Single-dose, ready-to-use injectable formulations” (BioSplice Therapeutics, Inc., priority 2016, dated 2023).
